In US11414429B2, “Compound or pharmaceutically acceptable salt thereof” (RIKEN, priority 2016, dated 2022):

Tests used:
[1] = molecular target: T1, tankyrase 1 (TNKS 1) (Homo sapiens, UniProt O95271); assay: Tankyrase inhibitory activity test (ELISA, self-polyADP ribosylation), tankyrase 1; assay type: biochemical; details: ELISA, self-polyADP ribosylation; class symbols; read-out: TNKS1 (inhibitory activity against tankyrase 1, IC50 value)
T1 construct: 1,024-1,327aa; made in house; host or cells: cell-free protein synthesis system
T1 sequence (O95271 1024-1327): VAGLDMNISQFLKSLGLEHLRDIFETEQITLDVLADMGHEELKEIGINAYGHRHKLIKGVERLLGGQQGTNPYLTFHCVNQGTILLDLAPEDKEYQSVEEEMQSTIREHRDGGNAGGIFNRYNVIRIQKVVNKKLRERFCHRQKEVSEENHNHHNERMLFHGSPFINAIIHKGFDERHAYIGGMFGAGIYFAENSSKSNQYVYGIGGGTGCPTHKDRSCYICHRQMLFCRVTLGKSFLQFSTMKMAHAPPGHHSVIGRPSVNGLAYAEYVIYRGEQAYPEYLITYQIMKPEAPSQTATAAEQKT
Summary of the method: (§1)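 Flag-tagged TNKS1 (1,024-1,327aa, SAM+PARP) and TNKS2 (613-1,116aa, ANK5+SAM+PARP) were made cell-free and captured overnight at 4 °C on anti-FLAG M2 plates. After 10 min compound preincubation in Tris pH 8.0/MgCl2/DTT buffer, NAD (225 μM) plus biotin-NAD (25 μM) solution was added for 45 min at 30 °C. Auto-PARylation was read by streptavidin-HRP chemiluminescence, giving IC50 from residual activity.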

[2] = tested on: human colorectal cancer cell line, COLO-320DM; assay: Cell proliferation inhibitory activity test (Celltiter-Glo Luminescent Cell Viability Assay); assay type: cell-based; details: COLO-320DM cells, 96 hours, class symbols, read-out: COLO-320 DM (cell proliferation inhibitory activity, GI50 value)
Summary of the method: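 Cells grown in RPMI-1640 with 10% FBS and 2 mM glutamine, seeded overnight, then exposed to compound (1% DMSO final) for 96 h at 37° C., 5% CO2. Viability read by ATP luminescence; GI50 is the concentration reducing cell growth to 50% of DMSO control.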

[3] = molecular target: T2, tankyrase 2 (TNKS 2) (Homo sapiens, UniProt Q9H2K2); assay: Tankyrase inhibitory activity test (ELISA, self-polyADP ribosylation), tankyrase 2; assay type: biochemical; details: ELISA, self-polyADP ribosylation; class symbols; read-out: TNKS2 (inhibitory activity against tankyrase 2, IC50 value)
T2 construct: 613-1, 116aa; made in house; host or cells: cell-free protein synthesis system
T2 sequence (Q9H2K2 613-1166): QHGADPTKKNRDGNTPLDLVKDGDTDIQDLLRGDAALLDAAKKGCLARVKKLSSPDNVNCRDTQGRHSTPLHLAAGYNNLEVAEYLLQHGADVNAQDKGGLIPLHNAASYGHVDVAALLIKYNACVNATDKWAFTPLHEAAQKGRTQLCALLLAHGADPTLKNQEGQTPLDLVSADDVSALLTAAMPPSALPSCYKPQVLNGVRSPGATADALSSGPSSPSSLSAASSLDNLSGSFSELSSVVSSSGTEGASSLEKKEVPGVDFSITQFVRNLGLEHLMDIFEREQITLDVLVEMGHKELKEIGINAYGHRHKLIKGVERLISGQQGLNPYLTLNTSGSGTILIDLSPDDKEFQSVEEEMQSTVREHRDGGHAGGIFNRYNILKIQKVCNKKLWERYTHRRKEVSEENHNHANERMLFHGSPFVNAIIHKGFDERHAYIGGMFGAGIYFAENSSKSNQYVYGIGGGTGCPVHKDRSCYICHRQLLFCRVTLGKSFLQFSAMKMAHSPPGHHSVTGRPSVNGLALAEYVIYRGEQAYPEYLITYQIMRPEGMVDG
Summary of the method: as §1

IC50 [1] [nM] | GI50 [2] [nM] | IC50 [3] [nM] | Compound
< 20 | 600 to 1000 | < 20 | C[C@@H]1CN(c2cc(F)c3c(c2)N(CC(F)(F)F)C(=O)C32CCN(c3nc4c(c(=O)[nH]3)CCCN4C)CC2)C[C@H](C)N1 [Example 417, 6-(cis-3,5-dimethyl-piperazin-1-yl)-4-fluoro-1′-(8-methyl-4-oxo-3,4,5,6,7,8-hexahydropyrido[2,3-d]pyrimidin-2-yl)-1-(2,2,2-trifluoroethyl) spiro[indoline-3,4′-piperidin]-2-one]
< 20 | 100 to 600 | < 20 | COCCN1C(=O)C2(CCN(c3nc4c(c(=O)[nH]3)CCCN4C)CC2)c2c(F)cc(OCc3nnn[nH]3)cc21 [Example 418, 4-fluoro-1-(2-methoxyethyl)-1′-(8-methyl-4-oxo-3,4,5,6,7,8-hexahydropyrido[2,3-d]pyrimidin-2-yl)-6-[(1H-tetrazole-5-yl)methoxy]spiro[indoline-3,4′-piperidine]-2(1H)-one]
< 20 | < 100 | < 20 | CN1CCCc2c1nc(N1CCC3(CC1)C(=O)N(CC(F)(F)F)c1cc(OCc4nnn[nH]4)cc(F)c13)[nH]c2=O [Example 419, 6-[(1H-tetrazol-5-yl)methoxy]-4-fluoro-1′-(8-methyl-4-oxo-3,4,5,6,7,8-hexahydro-pyrido[2,3-d]pyrimidin-2-yl)-1-(2,2,2-trifluoro-ethyl)spiro[indoline-3,4′-piperidin]-2(1H)-one]
< 20 | < 100 | < 20 | CN1CCCc2c1nc(N1CCC3(CC1)C(=O)N(C)c1cc(N4CCC(C(=O)O)CC4)cc(F)c13)[nH]c2=O [Example 422, 1-[4-fluoro-1-methyl-1′-(8-methyl-4-oxo-3,4,5,6,7,8-hexahydro-pyrido[2,3-d]pyrimi-din-2-yl)-2-oxospiro [indoline-3,4′-piperidin]-6-yl]piperidine-4-carboxylic acid]
< 20 | < 100 | < 20 | CN1CCCc2c1nc(N1CCC3(CC1)C(=O)N(C)c1cc(N4CC(C(=O)O)C4)cc(F)c13)[nH]c2=O [Example 423, 1-[4-fluoro-1-methyl-1′-(8-methyl-4-oxo-3,4,5,6,7,8-hexahydro-pyrido[2,3-d]pyrimi-din-2-yl)-2-oxospiro[in-doline-3,4′-piperidin]-6-yl]azetidine-3-carboxylic acid]
< 20 | 100 to 600 | < 20 | CN1CCCc2c1nc(N1CCC3(CC1)C(=O)N(CC(N)=O)c1cc(F)cc(F)c13)[nH]c2=O [Example 424, 2-[4,6-difluoro-1′-(8-methyl-4-oxo-3,4,5,6,7,8-hexahydropyrido [2,3-d]pyrimidin-2-yl)-2-oxospiro[indoline-3,4′-piperidin]-1(2H)-yl]acetamide]
< 20 | 600 to 1000 | < 20 | CN1CCCc2c1nc(N1CCC3(CC1)C(=O)N(C)c1cc(OCC(=O)NS(C)(=O)=O)cc(F)c13)[nH]c2=O [Example 427, 2-{[4-fluoro-1-methyl-1′-(8-methyl-4-oxo-3,4,5,6,7,8-hexahydro-pyrido[2,3-d]pyrimi-din-2-yl)-2-oxospiro [indoline-3,4′-piperidin]-6-yl]oxy}-N-(methyl-sulfonyl)acetamide]
< 20 | 100 to 600 | < 20 | CN1CCCc2c1nc(N1CCC3(CC1)C(=O)N(C)c1cc(OCCNS(=O)(=O)N(C)C)cc(F)c13)[nH]c2=O [Example 428, 6-[2-(N,N-dimethyl-sulfamoyl)amino-ethoxy]-4-fluoro-1-methyl-1′-(8-methyl-4-oxo-3,4,5,6,7,8-hexahydro-pyrido[2,3-d]pyrimi-din-2-yl)spiro [indoline-3,4′-piperidin]-2(1 H)-one]
< 20 | 100 to 600 | < 20 | CN1CCCc2c1nc(N1CCC3(CC1)C(=O)N(CCO)c1cc(OCC#N)cc(F)c13)[nH]c2=O [Example 429, {[4-fluoro-1-(2-hydroxy-ethyl)-1′-(8-methyl-4-oxo-3,4,5,6,7,8-hexahydro-pyrido[2,3-d]pyrimidin-2-yl)-2-oxospiro[indoline-3,4′-piperidin]-6-yl]oxy} acetonitrile]
< 20 | 600 to 1000 | < 20 | CN1CCCc2c1nc(N1CCC3(CC1)C(=O)N(CC(=N)N)c1cc(F)cc(F)c13)[nH]c2=O [Example 430, [4,6-difluoro-1′-(8-methyl-4-oxo-3,4,5,6,7,8-hexahydropyrido[2,3-d]pyrimidin-2-yl)-2-oxospiro[indoline-3,4′-piperidine]-1(2H)-yl]ethanimidamide]
< 20 | 600 to 1000 | < 20 | CN1CCCc2c1nc(N1CCC3(CC1)C(=O)N(C)c1cc(C(=O)O)cc(F)c13)[nH]c2=O [Example 431, 4-fluoro-1-methyl-1′-(8-methyl-4-oxo-3,4,5,6,7,8-hexahydro-pyrido[2,3-d]primi-din-2-yl)-2-oxospiro[indoline-3,4′-piperidine]-6-carboxylic acid]
20 to 200 | 100 to 600 | 20 to 200 | CN1CCCc2c1nc(N1CCC3(CC1)C(=O)N(C)c1cc(OCCNS(C)(=O)=O)cc(F)c13)[nH]c2=O [Example 432, N-(2-{[4-fluoro-1-methyl-1′-(8-methyl-4-oxo-3,4,5,6,7,8-hexahy-dropyrido[2,3-d]py-rimidin-2-yl)-2-oxospiro [indoline-3,4′-piperi-din]-6-yl]oxy}ethyl) methanesulfonamide]
< 20 | 600 to 1000 | < 20 | CN1CCCc2c1nc(N1CCC3(CC1)OC(=O)c1cc(N4CCN(C(C)(C)C)CC4)cc(F)c13)[nH]c2=O [Example 434, 6-(4-tert-butylpipera-zin-1-yl)-4-fluoro-1′-(4-hydroxy-8-methyl-6,7-dihydro-5H-pyrido [2,3-d]pyrimidin-2-yl) spiro[2,3-benzofuran-3,4′-piperidine]-1-one]
< 20 | 100 to 600 | < 20 | N#CCOc1cc(F)c2c(c1)N(CC(F)(F)F)C(=O)C21CCN(c2nc3c(c(=O)[nH]2)CCCN3)CC1 [Example 435, 2-[4-fluoro-2-oxo-1′-(4-oxo-3,4,5,6,7-hex-ahydropyrido[2,3-d]pyrimidin-2-yl)-1-(2,2,2-trifluoroethyl)spiro [indole-3,4′-piperidine]-6-yl]oxyacetonitrile]

Compound | IC50 [1] [nM] | GI50 [2] [nM] | IC50 [3] [nM]
CN1CCC(Oc2ccc(F)c3c2N(C)C(=O)C32CCN(c3nc4c(c(=O)[nH]3)CCCN4C)CC2)CC1 [Example 420, 4-fluoro-1′-(4-hydroxy-8-methyl-6,7-dihydro-5H-pyrido[2,3-d]pyrimidin-2-yl)-1-methyl-7-(1-methylpiperidin-4-yl)oxyspiro[indole-3,4′-piperidin]-2-one] | < 20 | 100 to 600 | < 20
CN1CCCc2c1nc(N1CCC3(CC1)C(=O)N(C)c1c(OCC4CCNCC4)ccc(F)c13)[nH]c2=O [Example 421, 4-fluoro-1′-(4-hydroxy-8-methyl-6,7-dihydro-5H-pyrido[2,3-d]pyrimidin-2-yl)-1-meth-yl-7-(piperidin-4-yl-methoxy)spiro[indole-3,4′-piperidin]-2-one] | < 20 | 100 to 600 | < 20
CN1CCCc2c1nc(N1CCC3(CC1)C(=O)N(C)c1c(OC4CC5CCC(C4)N5C)ccc(Cl)c13)[nH]c2=O (stereo not drawn) [Example 425, 4-chloro-1′-(4-hydroxy-8-methyl-6,7-dihydro-5H-pyrido[2,3-d]pyrimidin-2-yl)-1-methyl-7-[(8-methyl-8-azabicyclo [3.2.1]octan-3-yl)oxy] spiro[indole-3,4′-piperidin]-2-one] | < 20 | 100 to 600 | < 20
CN1C(=O)C2(CCN(c3nc4c(c(=O)[nH]3)CCCN4)CC2)c2c(F)ccc(OCC(C)(C)O)c21 [Example 426, 4-fluoro-7-(2-hydroxy-2-methylpropoxy)-1′-(4-hydroxy-5,6,7,8-tetrahydropyrido[2,3-d]pyrimidin-2-yl)-1-methyl-spiro[indole-3,4′-piperidin]-2-one] | < 20 | 100 to 600 | < 20
CN1CCCc2c1nc(N1CCC3(CC1)C(=O)N(C)c1c(OCCNC(C)(C)C)ccc(F)c13)[nH]c2=O [Example 437, 7-[2-(tert-butylamino)ethoxy]-4-fluoro-1′-(4-hydroxy-8-methyl-6,7-dihydro-5H-pyrido [2,3-d]pyrimidin-2-yl)-1-methylspiro[indole-3,4′-piperidine]-2-one] | 20 to 200 | 100 to 600 | 20 to 200
CN1C(=O)C2(CCN(c3nc4c(c(=O)[nH]3)CCCN4)CC2)c2c(Cl)ccc(OC3CCOC3)c21 (stereo not drawn) [Example 438, 4-chloro-1′-(4-oxo-3,4,5,6,7,8-hexahydro-pyrido[2,3-d]pyrimidin-2-yl)-1-methyl-7-(oxo-lan-3-yloxy)spiro [indole-3,4′-piperidine]-2-one] | < 20 | 600 to 1000 | < 20
